Results: patent publication EP1247448A2 (priority 1998, dated 1999)
Where “and” joins values, the source holds several entries; their conditions need not be identical. Equal values may be shown once. Read-outs that look alike come from different tables or passages of the source.

Tests used:
[1] = test system: tomato late blight (TLB), Phytophthora infestans; type: in vivo; conditions: for TLB obs. % Control: Table 3a
Cucumber Downy Mildew [2] = test: Cucumber downy mildew control on cucumber plants (Example 4); type: in vivo, Pseudoperonospora cubensis; conditions: Table 4b
Tomato Late Blight [3] = type: in vivo, Phytophthora infestans; conditions: Table 4a
[4] = test system: Phytophthora infestans on potatoes (PLB); type: in vivo; conditions: Table 5b
Cucumber Downy Mildew [5] = test system: Cucumber Downy Mildew; parameters: species or system Pseudoperonospora cubensis; conditions: in vivo
Tomato Late Blight [6] = type: in vivo, Phytophthora infestans; conditions: Table 6a
[7] = test system: grape downy mildew, Plasmopara viticola; test: Grape downy mildew control on Delaware grapes (Example 6b); type: in vivo; conditions: Table 6b
Procedure: Tissue culture produced from Delaware grapes were sprayed with the fungicides. Inoculation with grape downy mildew (GDM) spores having a concentration of 40,000 spores ml was conducted 1 day after the application. Plants were placed in a mist chamber for 24 hrs and then moved to a control temperature chamber for the remainder of the test period. Table 6b -

Phytophthora capsici = Phytophthora capsici colony growth inhibition on potato dextrose agar (Examples 1 and 2); type: cell-based, Phytophthora capsici (ATCC 15399)

## CCO[PH](=O)O [Cmpd. E, Fosetyl-aluminum, reference compound]
[1]; 0.112 kg ai/ha
  TLB obs. % Control: 30.9%
[1]; 0.225 kg ai/ha
  TLB obs. % Control: 14.3%
[1]; 0.45 kg ai/ha
  TLB obs. % Control: 57.1%
[1]; 0.9 kg ai/ha
  TLB obs. % Control: 54.8%

## CCCOC(=O)NCCCN(C)C [Cmpd. F, Propamocarb, reference compound]
Cucumber Downy Mildew [2]; 0.063 Kg ai/ha
  % Control Observed: 9%
Cucumber Downy Mildew [2]; 0.125 Kg ai/ha
  % Control Observed: 0%
Cucumber Downy Mildew [2]; 0.25 Kg ai/ha
  % Control Observed: 27%
Tomato Late Blight [3]; 0.063 Kg ai/ha
  % Control Observed: 0%
Tomato Late Blight [3]; 0.125 Kg ai/ha
  % Control Observed: 3%
Tomato Late Blight [3]; 0.25 Kg ai/ha
  % Control Observed: 17%

## O=C1c2ccccc2C(=O)N1SC(Cl)(Cl)Cl [Cmpd. G, Folpet, reference compound]
[4]; 0.225 Kg ai/ha
  % Control Observed: 0%
[4]; 0.45 Kg ai/ha
  % Control Observed: 3.5%
Cucumber Downy Mildew [5]
  Number of Infection Sites: 16 and 22.2 and 19.2

## O=[N+]([O-])c1cc(C(F)(F)F)c(Cl)c([N+](=O)[O-])c1Nc1ncc(C(F)(F)F)cc1Cl [Cmpd. H, Fluazinam, reference compound]
Tomato Late Blight [6]; 0.125 Kg ai/ha
  % Control Observed: 20%
  % Infection: 64%
[7]; Cmpd. H 0.006 Kg ai/ha
  % Control Observed: 52%

## CCC(C)(NC(=O)c1cc(Cl)c(C)c(Cl)c1)C(=O)CCl (stereo not shown) [Compound A, N-[3'-(1'-chloro-3'-methyl-2'-oxopentan)]-3,5-dichloro-4-methylbenzamide]
Tomato Late Blight [6]; 0.025 Kg ai/ha
  % Control Observed: 84%
  % Infection: 13.2%
[7]; Cmpd. A 0.006 Kg ai/ha
  % Control Observed: 22%
Cucumber Downy Mildew [2]; 0.006 Kg ai/ha
  % Control Observed: 56%
Cucumber Downy Mildew [2]; 0.012 Kg ai/ha
  % Control Observed: 33%
Cucumber Downy Mildew [2]; 0.025 Kg ai/ha
  % Control Observed: 45%
Tomato Late Blight [3]; 0.006 Kg ai/ha
  % Control Observed: 23%
Tomato Late Blight [3]; 0.012 Kg ai/ha
  % Control Observed: 20%
Tomato Late Blight [3]; 0.025 Kg ai/ha
  % Control Observed: 36%
Phytophthora capsici; Table 1, Compound A 0.2 ppm, Compound C 0 ppm
  % Inhibition (Observed): 34.1%
Phytophthora capsici; Table 1, Compound A 0.3 ppm, Compound C 0 ppm
  % Inhibition (Observed): 52.8%
Phytophthora capsici; Table 2, Compound A 0.1 ppm, Compound D 0 ppm
  % Inhibition (Observed): 21.6%
Phytophthora capsici; Table 2, Compound A 0.2 ppm, Compound D 0 ppm
  % Inhibition (Observed): 31.0%
Phytophthora capsici; Table 2, Compound A 0.3 ppm, Compound D 0 ppm
  % Inhibition (Observed): 44.0%
[1]; Example 3a, alone at all rates tested
  control of tomato late blight: ≥ 95%
[1]; 0.0125 kg ai/ha
  TLB obs. % Control: 97.1%
[1]; 0.025 kg ai/ha
  TLB obs. % Control: 96.7%
[1]; 0.05 kg ai/ha
  TLB obs. % Control: 96.7%
[1]; 0.1 kg ai/ha
  TLB obs. % Control: 97.1%
[4]; 0.05 Kg ai/ha
  % Control Observed: 12%
[4]; 0.10 Kg ai/ha
  % Control Observed: 16%
Cucumber Downy Mildew [5]
  % Control Observed: 74.3% and 84.8% and 98.1%

## OP(O)O [Compound C, Phosphorous Acid, reference compound]
Phytophthora capsici; Table 1, Compound C 70 ppm, Compound A 0 ppm
  % Inhibition (Observed): 48.3%
Phytophthora capsici; Table 1, Compound C 100 ppm, Compound A 0 ppm
  % Inhibition (Observed): 72.1%

## O.O.O.O.O.O=S(=O)([O-])[O-].[Cu+2] [Compound D, CuSO4·5H2O, reference compound]
Phytophthora capsici; Table 2, Compound D 100 ppm, Compound A 0 ppm
  % Inhibition (Observed): 15.6%
Phytophthora capsici; Table 2, Compound D 200 ppm, Compound A 0 ppm
  % Inhibition (Observed): 47.0%
Phytophthora capsici; Table 2, Compound D 300 ppm, Compound A 0 ppm
  % Inhibition (Observed): 59.2%
